# Assay results as given in patent US20240288345A1, “FLUORESCENT STAINING METHOD” (OSAKA UNIVERSITY, priority 2022, published 2024).
# Key:
# [1] = system: fungal hyphae in a pulmonary aspergillosis tissue; assay: 3D imaging of fungal hyphae (Test Example H); details: with RedDot 2 counterstain, confocal microscope
# Protocol: (§1) A formaldehyde-fixed tissue specimen was washed with PBS, and was subsequently immersed in a 50% (v/v) CUBIC-L reagent (mixture containing water and the CUBIC-L reagent at 1:1) overnight. Further, the specimen was immersed in the CUBIC-L reagent at 37° C. for 5 days or 6 days while being gently shaken. Next, each of those specimens was washed with PBS, was immersed in 30% (w/v) of sucrose in the PBS, and was frozen in O.C.T. COMPOUND at −80° C. overnight. Next, the frozen specimen was thawed, was washed with PBS, and was immersed in a 0.5% solution of periodic acid (HIO;) (86171, MUTO PURE CHEMICALS CO., LTD.) at room temperature for 30 minutes. […] A cleared tissue specimen thus obtained was subjected to 3D imaging with a confocal fluorescence microscope or a light-sheet fluorescence microscope. A wavelength of 488 nm was applied as the excitation wavelength of each of FAM hydrazide, Compound 1, Alexa Fluor 488 hydrazide, BDP FL hydrazide, and fluorescein, and the fluorescence detection wavelength range of each of these materials was from 490 nm to 562 nm. […]
# [2] = system: goblet cell mucus of human colorectal mucosal tissue; assay: Fluorescent staining of frozen sliced specimen of human colonic mucosa (Test Example A)
# Protocol: A tissue to be stained was washed with phosphate buffered saline (PBS), was immersed in 30% (w/v) of sucrose in the PBS, and was frozen in O.C.T. COMPOUND (45833, Sakura Finetek) at −80° ° C. overnight. The frozen tissue was cut into a thickness of 10 μm with a cryostat (CM3050 S, Leica Biosystems). The resultant frozen section was washed with PBS three times, and was subjected to pretreatment with a 0.5% solution of periodic acid (HIOA) (86171, MUTO PURE CHEMICALS CO., LTD.) at room temperature for 30 minutes. The section was washed with PBS three times, and was incubated in FAM hydrazide, 5-isomer((50 µM, 24170, BroadPharm, in this description, sometimes referred to as “FAM hydrazide”), Alexa Fluor 488 hydrazide (50 μM, A10436, ThermoFisher Scientific, Inc.), BDP FL hydrazide (50 μM, 11470, Lumiprobe Corporation), or fluorescein (50 µM, FUJIFILM Wako Pure Chemical Corporation) diluted with PBS at room temperature overnight. After that, the section was washed with PBS and an image thereof was obtained with a confocal microscope.
# A section of a human colorectal mucosal tissue sampled from the non-tumor region of a surgical specimen of colorectal cancer was subjected to fluorescent staining through use of FAM hydrazide, Alexa Fluor 488 hydrazide, BDP FL hydrazide, or fluorescein serving as a fluorescent skeleton as a stain.
# [3] = system: colonic tissue analyte, crypt structure and neutrophils; assay: 3D imaging of ulcerative colitis histopathological analyte (Test Example D); parameters: species or system human; details: cleared, whole-mount 3D staining
# Protocol: as §1
# [4] = system: human colonic polyp; assay: 3D imaging of human colonic polyp with light-sheet microscope (Test Example G); details: with propidium iodide counterstain
# Protocol: as §1
# [5] = system: neutrophil in colonic tissue analyte; assay: Whole-mount 3D staining of ulcerative colitis colonic tissue analyte (Test Example C); parameters: species or system human; details: cleared
# Protocol: as §1
# [6] = system: human colonic mucosal tissue; assay: Clearing and whole-mount 3D fluorescent staining of human colonic mucosal tissue (Test Example B)
# Protocol: CUBIC-L and CUBIC-R+reagents (T3740 and T3741, Tokyo Chemical Industry Co., Ltd.) were used in tissue clearing. Atissue removal procedure is simply described below.
# A formaldehyde-fixed tissue specimen was washed with PBS, and was subsequently immersed in a 50% (v/v) CUBIC-L reagent (mixture containing water and the CUBIC-L reagent at 1:1) overnight. Further, the specimen was immersed in the CUBIC-L reagent at 37° C. for 5 days or 6 days while being gently shaken. Next, each of those specimens was washed with PBS, was immersed in 30% (w/v) of sucrose in the PBS, and was frozen in O.C.T. COMPOUND at −80° C. overnight. […] After having been washed with PBS, the specimen was stained by being gently shaken at room temperature for 2 days or 3 days together with FAM hydrazide, 5-isomer (50 μM), Compound 1 (50 μM), Alexa Fluor 488 hydrazide (50 µM), BDP FL hydrazide ([…]), or fluorescein (50 µM) in PBS containing 0.5% (v/v) of Triton X-100 (12967, Nacalai Tesque, Inc.). When nuclear counterstaining was performed, propidium iodide (PI) (10 μg/mb, P21493, Life Technologies Corporation) or RedDot-2 (1:100, 40061-T, Biotium, Inc.) was also added to the staining solution. After the staining step, the specimen was washed with PBS, and was immersed in a 50% (v/v) CUBIC-R+reagent (mixture containing water and the CUBIC-R+reagent at 1:1) overnight. Further, the specimen was immersed in the CUBIC-R+reagent for 1 day or 2 days while being gently shaken. A cleared tissue specimen thus obtained was subjected to 3D imaging with a confocal fluorescence microscope or a light-sheet fluorescence microscope. A wavelength of 488 nm was applied as the excitation wavelength of each of FAM hydrazide, Compound 1, Alexa Fluor 488 hydrazide, BDP FL hydrazide, and fluorescein, and the fluorescence detection wavelength range of each of these materials was from 490 nm to 562 nm.
# A 3D image was obtained by using a confocal microscope (Zeiss LSM880 Confocal/Multiphoton, Carl Zeiss AG) or a light-sheet fluorescence microscope (Zeiss Lightsheet 7, Carl Zeiss AG), All pieces of raw image data were reconstructed and analyzed with Imaris software (version 9.2.1, Bitplane Inc.).
# A human colonic mucosal tissue after its formalin fixation, which had been excised into a square about 4 mm on a side, was subjected to clearing treatment and to whole-mount 3D tissue staining through use of FAM hydrazide, Alexa Fluor 488 hydrazide, BDP FL hydrazide, or fluorescein as a stain.
structure (smiles),measurement,setting,value
"NNC(=O)c1ccc2c(c1)C(=O)OC21c2ccc(O)cc2Oc2cc(O)ccc21 [FAM hydrazide, FAM hydrazide, 5-isomer]",Visualization of structures of fungal hyphae,[1],clearly visualized
same,"Fluorescent staining signal in goblet cell mucus, sliced section","[2]; 10 μm frozen section, 0.5% periodic acid pretreatment, 50 μM overnight",clear positive image
same,"Fluorescent staining signal without oxidation treatment with HIO4, sliced section",[2]; no HIO4 oxidation,not obtained
same,Three-dimensional observation of pathological crypt structure of ulcerative colitis,[3],enabled the three-dimensional observation
same,Observation of surface layer structure of human colonic polyp,[4],able to be observed
same,Stained image of neutrophil in 3D imaging,[5],clear stained image
same,3D imaging signal of cleared tissue,"[6]; CUBIC clearing, periodic acid, 50 μM, 2-3 days, excitation 488 nm",clear stereoscopic image
same,Staining of goblet cell and basement membrane in crypt of colonic mucosa,"[6]; cleared tissue, 3D staining",clearly stained
same,Staining of neutrophil in 3D tissue staining,"[6]; cleared tissue, confirmed with anti-MPO antibody",clearly stained
same,3D staining signal without oxidation treatment with HIO4,"[6]; no HIO4 oxidation, CUBIC reagent",no positive signal was observed
same,Staining property for a sample having a thickness after clearing treatment,[6]; summary of Examples and Test Examples,significantly excellent
